Values quoted from earlier work as cited in US5846995A, “Substituted 1, 2, 3, 4-tetrahydro-2-dibenzofuranamines and 2-amino-cyclohepta (6, 7-B) Benzofurans” (priority 1997, dated 1998).

Conditions: background

bioavailability: low bioavailability
SMILES: CNS(=O)(=O)Cc1ccc2[nH]cc(CCN(C)C)c2c1.O=C(O)CCC(=O)O [Compound I, 3-[2-(dimethylamino)ethyl]-N-methyl-1H-indole-5-methanesulfonamide butane-1,4-dioate (1:1)]
